The values that follow are results of earlier work, collected in US20060280700A1, “Oral hygiene system to fight the effects of aging on the mouth, gums, and teeth” (priority 2005, published 2006).

The test system of series [1] is oral squamous carcinoma cells. The following applies: for inhibition in growth of oral squamous carcinoma cells: in culture.
The test system of the next series is Streptococcus mutants. The note with it: rodent model inoculated with Streptococcus mutants.

Take `Oc1cc(O)c2c(c1)O[C@H](c1cc(O)c(O)c(O)c1)[C@H](O)C2` [EGC, (−) epigauocatechin]: in series [1], the “inhibition of DNA synthesis” value was “dose-dependent inhibition” and the “inhibition in growth of oral squamous carcinoma cells” value (“inhibition in growth” below) is reported as “significant dose dependent inhibition”.

Consider `OC[C@@H](O)[C@H](O)[C@@H](O)CO` [Xylitol], for which, in the series on Streptococcus mutants, the cariogenic action result is given as “little or no cariogenic action”.

For `O=C(O[C@@H]1Cc2c(O)cc(O)cc2O[C@@H]1c1cc(O)c(O)c(O)c1)c1cc(O)c(O)c(O)c1` [EGCG, (−)-epigallocatechin-3-gallate], the “inhibition of the activity of Pophyromonas proteinases” value in the series on Pophyromonas proteinases is given as “significantly inhibited”. For the same compound, in series [1], the “inhibition of DNA synthesis” value is reported as “dose-dependent inhibition” and the “inhibition in growth” value was “significant dose dependent inhibition”.

(−)-epicatechin-3-gallate [ECG]: in the series on Pophyromonas proteinases, the “inhibition of the activity of Pophyromonas proteinases” value is reported as “significantly inhibited”. For the same compound, in series [1], the “inhibition of DNA synthesis” value is recorded as “dose-dependent inhibition” and the “inhibition in growth” value was “significant dose dependent inhibition”.

(−)-gallocatechin gallate: in the series with Pophyromonas proteinases, the “inhibition of the activity of Pophyromonas proteinases” value is “significantly inhibited”.

As to `O=C(O[C@@H]1Cc2c(O)cc(O)cc2O[C@H]1c1ccc(O)c(O)c1)c1cc(O)c(O)c(O)c1` [(−)-catechin gallate], in the series with Pophyromonas proteinases, the “inhibition of the activity of Pophyromonas proteinases” value is reported as “significantly inhibited”.
